Marks after values point to notes of the source that are not given here. Peptide text beside a SMILES is read from it.
What was measured:
[1] = system: mouse adult neural stem cells; assay: ATP-assay: proliferation (ATP levels) of neurosphere-derived cells; settings: for Fold Induction ATP: vs vehicle
[2] = system: cAMP activation in mouse adult neural stem cells; assay: cAMP detection (HitHunter EFC Cyclic AMP Chemiluminescence Assay); settings: Table 2

Compound: CC(C)C[C@H](NC(=O)[C@H](CCCCN)NC(=O)CNC(=O)[C@H](CC(C)C)NC(=O)[C@@H](N)C(C)C)C(=O)N[C@@H](CO)C(=O)N[C@@H](CCC(N)=O)C(=O)N[C@@H](CCC(=O)O)C(=O)N[C@@H](CC(C)C)C(=O)N[C@@H](Cc1c[nH]cn1)C(=O)N[C@@H](CCCCN)C(=O)N[C@@H](CC(C)C)C(=O)N[C@@H](CCC(N)=O)C(=O)N[C@H](C(=O)N[C@@H](Cc1ccc(O)cc1)C(=O)N1CCC[C@H]1C(=O)N[C@@H](CCCNC(=N)N)C(=O)N[C@H](C(=O)N[C@@H](CC(N)=O)C(=O)N[C@H](C(=O)NCC(=O)N[C@@H](CO)C(=O)NCC(=O)N[C@H](C(=O)N1CCC[C@H]1C(N)=O)[C@@H](C)O)[C@@H](C)O)[C@@H](C)O)[C@@H](C)O (H-VLGKLSQELHKLQTYPRTNTGSGTP-NH2; N-terminus and C-terminus assumed)
- ATP (nM ATP/well) ([1]; Table 4, 100 nM): 15.0 ± 2.2 nM ATP/well

Compound: CSCC[C@H](NC(=O)[C@H](CO)NC(=O)[C@H](Cc1ccc(O)cc1)NC(=O)[C@@H](N)CO)C(=O)N[C@@H](CCC(=O)O)C(=O)N[C@@H](Cc1cnc[nH]1)C(=O)N[C@@H](Cc1ccccc1)C(=O)N[C@@H](CCCNC(=N)N)C(=O)N[C@@H](Cc1c[nH]c2ccccc12)C(=O)NCC(=O)N[C@@H](CCCCN)C(=O)N1CCC[C@H]1C(=O)N[C@H](C(=O)NCC(=O)N[C@@H](CCCCN)C(=O)N[C@@H](CCCCN)C(=O)N[C@@H](CCCNC(=N)N)C(=O)N[C@@H](CCCNC(=N)N)C(=O)N1CCC[C@H]1C(=O)N[C@H](C(=O)N[C@@H](CCCCN)C(=O)N[C@H](C(=O)N[C@@H](Cc1ccc(O)cc1)C(=O)N1CCC[C@H]1C(=O)N[C@@H](CC(N)=O)C(=O)NCC(=O)N[C@@H](C)C(=O)N[C@@H](CCC(=O)O)C(=O)N[C@@H](CC(=O)O)C(=O)N[C@@H](CCC(=O)O)C(=O)N[C@@H](CO)C(=O)N[C@@H](C)C(=O)N[C@@H](CCC(=O)O)C(=O)N[C@@H](C)C(=O)N[C@@H](Cc1ccccc1)C(=O)N1CCC[C@H]1C(=O)N[C@@H](CC(C)C)C(=O)N[C@@H](CCC(=O)O)C(=O)N[C@@H](Cc1ccccc1)C(=O)O)C(C)C)C(C)C)C(C)C [ACTH (Human)] (H-SYSMEHFRWGKPVGKKRRPVKVYPNGAEDESAEAFPLEF-OH)
- Fold Induction cAMP ([2]; 100 nM, vs vehicle): 1.8** (100 nM) fold
- Fold Induction ATP ([1]; Table 2, 1000 nM, 4 days): 1.2* fold

Compound: CSCC[C@H](NC(=O)[C@H](CO)NC(=O)[C@H](Cc1ccc(O)cc1)NC(=O)[C@@H](N)CO)C(=O)N[C@@H](CCC(=O)O)C(=O)N[C@@H](Cc1c[nH]cn1)C(=O)N[C@@H](Cc1ccccc1)C(=O)N[C@@H](CCCNC(=N)N)C(=O)N[C@@H](Cc1c[nH]c2ccccc12)C(=O)NCC(=O)N[C@@H](CCCCN)C(=O)N1CCC[C@H]1C(=O)N[C@H](C(=O)NCC(=O)N[C@@H](CCCCN)C(=O)N[C@@H](CCCCN)C(=O)N[C@@H](CCCNC(=N)N)C(=O)N[C@@H](CCCNC(=N)N)C(=O)N1CCC[C@H]1C(=O)N[C@H](C(=O)N[C@@H](CCCCN)C(=O)N[C@H](C(=O)N[C@@H](Cc1ccc(O)cc1)C(=O)N1CCC[C@H]1C(=O)N[C@@H](CC(N)=O)C(=O)NCC(=O)N[C@@H](C)C(=O)N[C@@H](CCC(=O)O)C(=O)N[C@@H](CC(=O)O)C(=O)N[C@@H](CCC(=O)O)C(=O)N[C@@H](CO)C(=O)N[C@@H](C)C(=O)N[C@@H](CCC(=O)O)C(=O)N[C@@H](C)C(=O)N[C@@H](Cc1ccccc1)C(=O)N1CCC[C@H]1C(=O)N[C@@H](CC(C)C)C(=O)N[C@@H](CCC(=O)O)C(=O)N[C@@H](Cc1ccccc1)C(=O)O)C(C)C)C(C)C)C(C)C [ACTH (Human)] (H-SYSMEHFRWGKPVGKKRRPVKVYPNGAEDESAEAFPLEF-OH; N-terminus and C-terminus assumed)
- cAMP (pmol/well) ([2]; 100 nM (cAMP concentration)): 0.11 ± 0.02 pmol/well
- ATP (nM ATP/well) ([1]; Table 2, 1000 nM, 4 days): 15.7 ± 1.3 nM ATP/well

Compound: CC[C@H](C)[C@@H]1NC(=O)[C@H](CCCNC(=N)N)NC(=O)[C@H](CC(=O)O)NC(=O)[C@H](CCSC)NC(=O)[C@H](CCCNC(=N)N)NC(=O)CNC(=O)CNC(=O)[C@H](Cc2ccccc2)NC(=O)[C@@H](NC(=O)[C@H](CO)NC(=O)[C@H](CO)NC(=O)[C@H](CCCNC(=N)N)NC(=O)[C@H](CCCNC(=N)N)NC(=O)[C@H](CC(C)C)NC(=O)[C@@H](N)CO)CSSC[C@@H](C(=O)N[C@@H](CC(N)=O)C(=O)N[C@@H](CO)C(=O)N[C@@H](Cc2ccccc2)C(=O)N[C@@H](CCCNC(=N)N)C(=O)N[C@@H](Cc2ccc(O)cc2)C(=O)O)NC(=O)CNC(=O)[C@H](CC(C)C)NC(=O)CNC(=O)[C@H](CO)NC(=O)[C@H](CCC(N)=O)NC(=O)[C@H](C)NC(=O)CNC1=O [ANP (human)]
- ATP (nM ATP/well) ([1]; Table 4, 10 nM): 12.7 ± 1.0 nM ATP/well
- Fold Induction ATP ([1]; Table 4, 10 nM): 1.3* fold

Compound: CC[C@H](C)[C@H](NC(=O)[C@H](CCC(N)=O)NC(=O)[C@H](Cc1c[nH]cn1)NC(=O)[C@H](C)NC(=O)[C@@H](N)CC(C)C)C(=O)N[C@@H](Cc1ccc(O)cc1)C(=O)N[C@@H](CCC(N)=O)C(=O)N[C@@H](Cc1ccccc1)C(=O)N[C@H](C(=O)N[C@@H](CC(=O)O)C(=O)N[C@@H](CCCCN)C(=O)N[C@@H](CC(=O)O)C(=O)N[C@@H](CCCCN)C(=O)N[C@@H](CC(=O)O)C(=O)N[C@@H](CC(N)=O)C(=O)N[C@H](C(=O)N[C@@H](C)C(=O)N1CCC[C@H]1C(=O)N[C@@H](CCCNC(=N)N)C(=O)N[C@@H](CO)C(=O)N[C@@H](CCCCN)C(=O)N[C@H](C(=O)N[C@@H](CO)C(=O)N1CCC[C@H]1C(=O)N[C@@H](CCC(N)=O)C(=O)NCC(=O)N[C@@H](Cc1ccc(O)cc1)C(N)=O)[C@@H](C)CC)C(C)C)[C@@H](C)O [Adrenomedullin (26-52)] (H-LAHQIYQFTDKDKDNVAPRSKISPQGY-NH2; N-terminus and C-terminus assumed)
- cAMP (pmol/well) ([2]; 1 nM (cAMP concentration)): 0.33 ± 0.07 pmol/well
- ATP (nM ATP/well) ([1]; Table 2, 1 nM, 4 days): 11.4 ± 0.7 nM ATP/well

Compound: CC[C@H](C)[C@H](NC(=O)[C@H](CC(=O)O)NC(=O)[C@H](CC(C)C)NC(=O)[C@H](Cc1cnc[nH]1)NC(=O)[C@@H]1CSSC[C@H](N)C(=O)N[C@@H](CO)C(=O)N[C@H]2CSSC[C@H](NC(=O)[C@H](CCC(=O)O)NC(=O)[C@H](CCCCN)NC(=O)[C@H](CC(=O)O)NC(=O)[C@H](CCSC)NC(=O)[C@H](CC(C)C)NC(=O)[C@H](CO)NC(=O)[C@H](CO)NC2=O)C(=O)N[C@@H](C(C)C)C(=O)N[C@@H](Cc2ccc(O)cc2)C(=O)N[C@@H](Cc2ccccc2)C(=O)N1)C(=O)N[C@H](C(=O)N[C@@H](Cc1c[nH]c2ccccc12)C(=O)O)[C@@H](C)CC [Endothelin-1 (human, Bovine, Canine, Mouse, Porcine, Rat)]
- ATP (nM ATP/well) ([1]; Table 4, 10 nM): 14.4 ± 2.4 nM ATP/well
- Fold Induction ATP ([1]; Table 4, 10 nM, 0.01 µM): 3.2* fold

Compound: CC(C)Cn1c(=O)n(C)c(=O)c2[nH]cnc21 [IBMX, 3-Isobutyl-1-Methylxanthine]
- proliferation of neural stem cells ([1]; cAMP activators, GPCR-independent): increase

Reference: patent US6969702B2, “Compounds and methods for increasing neurogenesis” (priority 2002, dated 2005)
